Results reported in paper PMC4657468, “Impaired uptake of conjugated bile acids and hepatitis b virus pres1-binding in na^+-taurocholate cotransporting polypeptide knockout mice” (Hepatology (Baltimore, Md.), 2015).
Where two headings read alike, the source gives them in different places.

How the values were obtained:
[1] = for Serum TCA elimination t½: intravenous bolus 150 μmol TCA/kg with trace tritium-labeled TCA after gallbladder cannulation, one-phase decay, n = 5
Method: Differences between groups were analyzed using a two-tailed Student t test. […] Results were considered statistically significant at P < 0.05.

[2] = target: T1, NTCP (Mus musculus, UniProt O08705); settings: 1 μM Myrcludex B, 30 min preincubation, WT PMHs, 10 μM TCA, 1 minute
T1 sequence (O08705 1-362): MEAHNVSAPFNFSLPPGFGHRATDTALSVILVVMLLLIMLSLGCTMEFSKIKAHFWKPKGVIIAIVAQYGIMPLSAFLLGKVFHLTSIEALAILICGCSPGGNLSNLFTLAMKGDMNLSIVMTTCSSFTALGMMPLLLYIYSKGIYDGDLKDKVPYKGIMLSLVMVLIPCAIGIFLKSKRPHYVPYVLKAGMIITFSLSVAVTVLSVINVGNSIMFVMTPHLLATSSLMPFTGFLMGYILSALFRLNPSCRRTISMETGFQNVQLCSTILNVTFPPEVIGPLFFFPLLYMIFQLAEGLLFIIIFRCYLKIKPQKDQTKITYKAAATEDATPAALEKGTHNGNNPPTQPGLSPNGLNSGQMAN
Excerpt: (§1) Bars represent the mean ± SEM for two independent experiments, each performed in triplicate. *P < 0.05. (B) Total serum BA concentrations in male and female WT and Slc10a1^−/− (KO) mice. Data are given as mean ± SEM on a ^10log scale for seven to 16 mice in each group, quantified using the total BA assay. Serum composition of (C) conjugated and (D) unconjugated BA species as quantified using high-pressure liquid chromatography. […] Unconjugated BA (U-BA) concentrations are the sum of ω-muricholic acid, α-muricholic acid, β-muricholic acid, cholic acid, UDCA, chenodeoxycholic acid, and DCA. Data are given as mean ± SEM on a ^10log scale for three to six mice in each group. *P < 0.05 (compared to WT levels). […] Conjugated BA (dark gray) and unconjugated BA (light gray) species are shown as a percentage of total, as quantified using high-pressure liquid chromatography. (F) Total serum BA levels in relation to body weights of WT (open dots) and KO (black dots) 8-week-old mice (n – 11–14). […]
(§2) mouse NTCP antibody in block ing buffer f or 1 hour. Af ter washings, the slides were incubated with goat anti-rabbit Alexa 568 IgG. Images were captured with a Leica SP8X […]
(§3) Primary hepatocyte isolation and sandwich culture
(§4) Primary mouse hepatocytes (PMHs) were isolated from wild- type and Slc10a1 -/- mice by a 2-step collagenase perfusion method. […]

[3] = tested on: Slc10a1−/− PMHs; type: cell-based, mouse; settings: 1 μM Myrcludex B, sodium-dependent as well as sodium-free conditions
Excerpt: as §1, §2, §3, §4

[4] = tested on: NTCP; settings: at high concentrations; cited from earlier work
Excerpt: (§5) During and after a meal, bile acids (BAs) are released into the small intestine, where they facilitate the absorption of dietary fat and fat-soluble vitamins.[1] The majority of BAs are reabsorbed in the terminal ileum and transported back to the liver through the portal circulation. At the basolateral membranes of the hepatocytes, BAs are taken up from the portal circulation, extruded across the canalicular hepatocyte membrane, and transported to the gallbladder to complete the enterohepatic circulation.[2] Conjugated BAs are transported across the basolateral hepatic membrane through a sodiu ...

[5] = tested on: hepatitis B virus; settings: cited from earlier work
Excerpt: as §5

Compound	Serum TCA elimination t½ ([1]; WT mice) [min]	Lethality of the high dose of TCA ([1]; hypercholanemic Slc10a1−/− mice, intravenous bolus 150 μmol TCA/kg, shortly after injection)	Serum TCA elimination t½ ([1]; normocholanemic Slc10a1−/− mice) [min]	Effect on TCA uptake under sodium-free conditions ([2]; NMDG buffer)	Effect on sodium-dependent TCA uptake ([2]; sodium-containing buffer)	Effect on TCA uptake in Slc10a1−/− PMHs [3]	NTCP-mediated BA uptake [4]	Virus entry mediated by NTCP [5]
C[C@H](CCC(=O)NCCS(=O)(=O)O)[C@H]1CC[C@H]2[C@@H]3[C@H](O)C[C@@H]4C[C@H](O)CC[C@]4(C)[C@H]3C[C@H](O)[C@]12C [TCA, taurocholic acid]	1.5	lethal	5.3	–	–	–	–	–
Myrcludex B	–	–	–	no effect	abrogated sodium-dependent TCA uptake	unaffected	inhibits NTCP-mediated BA uptake at high concentrations	blocked
